Experimental data: article PMC4849654, “A High-Throughput Cell-Based Screen Identified a 2-[(E)-2-Phenylvinyl]-8-Quinolinol Core Structure That Activates p53” (PLoS ONE, 2016)
Where a SMILES comes first, the peptide text is derived from it. The star is where a group is joined. Cbz = O=C(OCc1ccccc1)*

Legend:
[1] = tested on: proteasome chymotrypsin-like activity; assay: Proteasome-Glo chymotrypsin-like activity; type: cell-based; conditions: C33a cells, 2 hrs, 10 μM or 30 μM
[2] = tested on: proteasome trypsin-like activity; assay: Proteasome-Glo trypsin-like activity; type: cell-based; conditions: C33a cells, 2 hrs, 10 μM or 30 μM
p53-Luc [3] = assay: TE6 p53-Luc targeted degradation reporter in C33a cells; type: cell-based; conditions: C33a cells expressing p53-Luc and TE6
Protocol: Adenoviruses were generated using the RAPAd CMV adenoviral expression system (Cellbiolabs, San Diego, CA). High-throughput screening was performed at the University of Illinois High-Throughput Screening Facility. For each group, 1x 10^7 C33a cells were plated in 150 mm^2 dishes in 20 ml cDMEM. For p53xTE6 group, 1 x 10^8 GFU/mL of p53-Luc adenovirus and 1 x 10^9 GFU/mL TE6 adenovirus were plated. For RbxTE7 group, 1 x 10^8 GFU/mL of p60RbRen adenovirus and 1 x 10^9 GFU/mL of βTrCP-E7 adenovirus were added. For control group, Ad-Red was substituted for TE6 or TE7 adenovirus in the p53 control and Rb control, respectively. […] Positive hits were scored as ≥ 2-fold above vehicle treated p53-Luc wells.
For the in vitro assay, E6 was cloned into the pMAL vector in frame with the maltose binding protein. […] We measured luciferase activity after 30 minutes. For the trypsin and chymotrypsin assay, C33a cells were incubated for 2 hours with the indicated compounds at 10 μM and assessed for chymotrypsin and trypsin activity using Proteasome-Glo assay (Promega). […] After incubation, cells were lysed and luciferase activity measured and p53 levels measured by Western blot.

C33a cells [4] = assay: Cell viability (Cell Titer Glo), C33a; type: cell-based; conditions: for IC50: C33a cells, 48 hrs, Cell Titer Glo
Protocol: (§1) For the viability assays, 20,000 C33a, HeLa, or siHA cells were plated in white 96 well flat bottom plates. The cells were treated with compounds at concentrations from 0.5 to 30 μM for 48 hrs. After incubation, Cell Titer Glo (Promega) was added to the cells and luminescence read in a Tecan II plate reader. For annexin V and PI staining, 500,000 C33a cells were treated with inhibitor for 24 hrs. The cells were stained with Annexin V-FITC and PI according to eBioscience manufacturer’s instructions and analyzed by flow cytometry.

HeLa cells = assay: Cell viability (Cell Titer Glo), HeLa; type: cell-based; conditions: for IC50: HeLa cells, 48 hrs, Cell Titer Glo
Protocol: as §1

PUMA = PUMA transcription by qRT-PCR; type: cell-based; conditions: 30 μM, 8h
Text: (§2) RNA from C33a and HeLa was isolated by Trizol and reverse transcribed using the first strand synthesis kit from NEB. Primers for p53, GAPDH and PUMA were used for quantitative real-time PCR (qRT-PCR). Primer sequences include: PUMA (forward primer: CTCAACGCACAGTACGAG and reverse primer: […]), FAS (forward primer: TCTGCCATAAGCCCTGT and reverse primer: GTCTGTGTACTCCTTCCCT), p21 (forward primer: […] and reverse primer: […]), and BAX (forward primer: […] and reverse primer: […]). ΔΔCt values were determined for PUMA using GAPDH to normalize data. Bio-rad SYBR green was used for the amplification and detection of the PCR products on an iCycler (Bio-rad).

siHA cells = assay: Cell viability (Cell Titer Glo), siHA; type: cell-based; conditions: 48h
Protocol: as §1

C33a cells [5] = assay: Cell viability after p53 siRNA knockdown; type: cell-based; conditions: p53 siRNA vs scrambled, 10 μM, 48 hrs
Protocol: C33a cells were transfected with 100 pmol siRNA for p53 (Dharmacon, L-003329-00-0005) or AllStar control (Qiagen) using lipofectamine2000 according to manufacturer’s instructions. The cells were incubated for 24 hrs and then split and incubated with 10 μM compounds. Cell viability was measured after 48 hours by Cell Titer Glo. Efficiency of knockdown was determined by quantitative RT-PCR using SYBR green.

p21, BAX and FAS = assay: p53 target gene expression (p21, BAX, FAS) by qRT-PCR; type: cell-based; conditions: HeLa cells, 8h
Text: as §2

p53 [6] = target: T1, p53 (Homo sapiens, UniProt P04637, R273C); assay: Nuclear/cytoplasmic fractionation and Western analysis of p53; type: cell-based; conditions: C33a cells, 6 hrs, Western
T1 construct: endogenous in cells; host or cells: C33a
Protocol: For nuclear/cytoplasmic fractionation, 1 × 10^7 C33a cells were treated with 30 μM compound for 6 hrs. The cells were washed with PBS and lysed in 1000 μL of cytoplasmic extraction buffer (10 mM KCl, 10 mM HEPES, pH 7.9, 0.1 mM EDTA, 1 mM dithiothreitol) and incubated on ice for 20 min. 50 μL of 10% NP-40 was added to each lysate, vortexed and then centrifuged at 12,000 × g for 10 min. The cytosolic fraction was collected and the pellet containing the nuclei suspended in 50 μL of nuclear extraction buffer (0.4 M NaCl, 20 mM HEPES, pH 7.9, 1 mM EDTA). The nuclear fraction was incubated for 30 min on ice. The samples were spun at 14,000 × g for 10 min and the supernatants were collected. To concentrate the cytoplasmic fraction, 500 μL methanol, and 200 μL chloroform were added and the samples were vortexed, centrifuged for 10 min at 14,000 × g, and the upper and lower layer were discarded. The solid interphase was collected and suspended in 50 μL of lysis buffer. Equal cell equivalents were loaded on a gel and electrophoresed. For whole cell lysates, C33a cells were lysed with a modified RIPA buffer and subjected to SDS-PAGE electrophoresis. The gels were transferred to nitrocellulose and blots probed with antibodies for p53 (Santa Cruz, antibody FL-303), lamin A/C, and calnexin (Santa Cruz Biotechnology).

p53 [7] = target: T1, p53; assay: p53 nuclear localization by immunofluorescence; type: cell-based; conditions: C33a cells, 30 μM, 8 hrs
Protocol: C33a cells were plated into chamber slides and treated with 30 μM of compounds 3 or, 4 for 4, or 8 hours. As a control, 30 μM cisplatin was used. The cells were fixed with 2.5% formaldehyde for 30 minutes, followed by permeabilization with 0.01% Triton X100 for 30 minutes. Cells were blocked with 5% goat serum for 30 minutes and stained overnight with anti-p53 (Santa Cruz, antibody FL-303) or anti-phospho-H2A.X (cell signaling) in 1% FCS in PBS at 4°. The following day, the cells were washed with PBS and incubated for 45 minutes with anti-rabbit-FITC and DAPI in 1% FCS in PBS. The cells were washed and mounted with ProLong Gold.

p53-Luc [8] = assay: In vitro E6 degradation assay (recombinant E6 with p53-Luc lysates); type: biochemical; conditions: 50 ng recombinant E6, 10 μM compound, C33a lysates, 6 hours
Protocol: For the in vitro assay, E6 was cloned into the pMAL vector in frame with the maltose binding protein. The E6 was expressed in bacteria and purified on amylose column. C33a cells were transfected with p53-Luc and incubated overnight. 50 ng recombinant E6 was incubated with 10 μM compound and C33a lysates for 6 hours at 30 degrees. We measured luciferase activity after 30 minutes. For the trypsin and chymotrypsin assay, C33a cells were incubated for 2 hours with the indicated compounds at 10 μM and assessed for chymotrypsin and trypsin activity using Proteasome-Glo assay (Promega). For the in vivo degradation assay, C33a cells expressing Ad-TE6 and Ad-p53 or expressing Ad-TE7 and Ad-Rb-Ren were treated for 8 hours with compounds. After incubation, cells were lysed and luciferase activity measured and p53 levels measured by Western blot.

| Structure (SMILES) | chymotrypsin-like proteasome activity [1] | trypsin-like proteasome activity [2] | restoration of p53-Luc luciferase activity (p53-Luc [3]) | IC50 (C33a cells [4]) [µM] | IC50 (HeLa cells) [µM] | expression of p21, BAX and FAS (p21, BAX and FAS) | also measured |
| --- | --- | --- | --- | --- | --- | --- | --- |
| CC(C)C[C@@H](C=O)NC(=O)[C@H](CC(C)C)NC(=O)[C@H](CC(C)C)NC(=O)OCc1ccccc1 [MG132, reference compound] (Cbz-Leu-Leu-Leu-aldehyde) | significantly inhibited | significantly inhibited | – | – | – | – | – |
| OCc1ccc(-c2ccc(-c3ccc(CO)s3)o2)s1 [RITA] | – | – | did not restore p53-Luc activity | – | – | – | – |
| CC(C)C[C@H](NC(=O)[C@H](Cc1ccccc1)NC(=O)c1cnccn1)B(O)O [bortezomib] | – | – | restored p53-Luc luciferase activity | – | – | – | – |
| N.N.[Cl][Pt][Cl] [cisplatin, reference compound] | – | – | – | 24 | 4.6 | – | – |
| Cc1cccc(/C=C/c2ccc3cccc(O)c3n2)c1O [compound 3] | did not significantly reduce | did not significantly reduce | – | 3.8 | 6 | induced expression | PUMA transcription upregulation (PUMA; C33a cells): 3.92±0.27 fold; PUMA transcription upregulation (PUMA; HeLa cells): 4.35±0.22 fold; cell viability at 30 μM (siHA cells): decreased viability; effect of p53 gene knockdown on C33a sensitivity to compound (C33a cells [5]): significantly reversed; cell viability at 30 μM (C33a cells [4]; C33a, 30 μM, 48h): decreased viability; nuclear accumulation of p53 in nuclear fraction compared to vehicle (p53 [6]): higher levels of nuclear accumulation of p53; cell viability at 30 μM (HeLa cells; HeLa, 30 μM, 48h): decreased viability; p53 nuclear accumulation, % of cell nuclei (p53 [7]): 51.1±2.18 % of cell nuclei; restoration of p53 levels in vitro (p53-Luc [8]): restored p53 levels in vitro to similar levels as the proteasome inhibitor MG132 |
| COc1cc(/C=C/c2ccc3cccc(O)c3n2)cc(Br)c1OC [compound 37] | – | – | – | – | – | induced expression | – |
